Test results from publication PMC3257585 (Journal of Medicinal Chemistry, 2011).

How the values were obtained:
[1] = molecular target: PIM1 (Homo sapiens, UniProt P11309); test: Thermal stability shift assay; format: binding; settings: Tm shift assay
[2] = molecular target: cKIT (Homo sapiens, UniProt P10721); test: In vitro kinase selectivity panel; format: biochemical
[3] = molecular target: PDGFRa (Homo sapiens, UniProt P16234); test: In vitro kinase selectivity panel; format: biochemical
[4] = molecular target: T1, FLT3 (Homo sapiens, UniProt P36888); test: In vitro kinase selectivity panel; format: biochemical
T1 sequence (P36888 27-993): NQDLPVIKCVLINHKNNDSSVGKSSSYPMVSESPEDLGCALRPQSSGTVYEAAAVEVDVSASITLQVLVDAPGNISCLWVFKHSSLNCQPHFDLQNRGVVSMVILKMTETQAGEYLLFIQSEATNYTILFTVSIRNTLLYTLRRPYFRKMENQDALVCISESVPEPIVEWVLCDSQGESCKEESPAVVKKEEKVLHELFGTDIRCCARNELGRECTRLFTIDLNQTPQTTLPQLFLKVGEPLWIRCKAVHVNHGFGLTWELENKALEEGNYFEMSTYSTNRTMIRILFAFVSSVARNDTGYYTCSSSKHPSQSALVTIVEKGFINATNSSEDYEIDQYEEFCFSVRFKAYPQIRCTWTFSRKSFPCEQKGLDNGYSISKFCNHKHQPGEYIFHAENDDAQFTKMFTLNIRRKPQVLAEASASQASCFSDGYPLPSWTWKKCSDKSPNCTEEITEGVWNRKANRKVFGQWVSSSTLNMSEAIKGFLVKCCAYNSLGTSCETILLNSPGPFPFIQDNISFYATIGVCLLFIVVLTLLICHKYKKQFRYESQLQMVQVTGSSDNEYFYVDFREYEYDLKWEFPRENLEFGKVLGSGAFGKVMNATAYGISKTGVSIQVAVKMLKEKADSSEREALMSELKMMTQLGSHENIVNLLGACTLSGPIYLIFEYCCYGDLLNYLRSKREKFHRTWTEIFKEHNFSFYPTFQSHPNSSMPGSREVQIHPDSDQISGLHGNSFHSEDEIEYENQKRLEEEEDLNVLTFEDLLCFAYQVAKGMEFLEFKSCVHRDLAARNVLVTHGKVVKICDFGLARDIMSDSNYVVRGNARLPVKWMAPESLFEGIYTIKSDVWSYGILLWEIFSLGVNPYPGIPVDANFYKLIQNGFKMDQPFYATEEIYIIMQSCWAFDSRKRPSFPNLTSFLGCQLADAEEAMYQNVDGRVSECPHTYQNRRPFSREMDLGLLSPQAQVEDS

[5] = molecular target: BTKv2 (Homo sapiens, UniProt Q06187); test: In vitro kinase selectivity panel; format: biochemical
[6] = molecular target: CaMK2 (Homo sapiens, UniProt Q13555); test: In vitro kinase selectivity panel; format: biochemical
[7] = molecular target: HER4 (Homo sapiens, UniProt Q15303); test: In vitro kinase selectivity panel; format: biochemical
[8] = molecular target: T2, PDK1v2 (Homo sapiens, UniProt O15530); test: In vitro kinase selectivity panel; format: biochemical
T2 sequence (O15530 1-556): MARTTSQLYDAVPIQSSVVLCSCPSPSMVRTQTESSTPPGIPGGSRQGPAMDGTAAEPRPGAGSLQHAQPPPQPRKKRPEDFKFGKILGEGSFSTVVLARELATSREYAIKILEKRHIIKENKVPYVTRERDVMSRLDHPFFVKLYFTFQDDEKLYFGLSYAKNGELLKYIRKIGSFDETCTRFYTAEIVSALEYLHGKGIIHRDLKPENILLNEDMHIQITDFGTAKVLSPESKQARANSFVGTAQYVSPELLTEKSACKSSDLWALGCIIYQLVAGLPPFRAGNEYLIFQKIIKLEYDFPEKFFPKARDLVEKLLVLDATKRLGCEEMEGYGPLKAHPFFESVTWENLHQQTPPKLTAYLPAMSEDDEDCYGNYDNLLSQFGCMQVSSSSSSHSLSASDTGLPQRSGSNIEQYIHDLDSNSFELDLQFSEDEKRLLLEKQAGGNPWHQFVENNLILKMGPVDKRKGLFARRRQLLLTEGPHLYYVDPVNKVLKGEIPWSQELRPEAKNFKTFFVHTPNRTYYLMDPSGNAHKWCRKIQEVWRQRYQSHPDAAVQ

[9] = molecular target: PKA (Homo sapiens, UniProt P17612); test: In vitro kinase selectivity panel; format: biochemical
[10] = tested on: phosphorylation of 4E-BP1; test: Western blot of 4E-BP1 phosphorylation in MV4; format: cell-based, human; settings: MV4;11 cells, 0–10 μM

Sequence of PIM1 (P11309 whole entry): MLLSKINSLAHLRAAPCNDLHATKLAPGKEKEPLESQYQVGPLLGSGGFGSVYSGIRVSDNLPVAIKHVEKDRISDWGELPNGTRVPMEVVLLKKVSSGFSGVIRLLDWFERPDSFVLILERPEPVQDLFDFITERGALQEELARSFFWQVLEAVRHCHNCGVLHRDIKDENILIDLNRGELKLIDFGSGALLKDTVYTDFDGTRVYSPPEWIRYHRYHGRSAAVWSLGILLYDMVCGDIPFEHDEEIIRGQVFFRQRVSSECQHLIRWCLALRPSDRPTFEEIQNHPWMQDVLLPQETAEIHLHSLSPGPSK
Sequence of PDGFRa (P16234 24-1089): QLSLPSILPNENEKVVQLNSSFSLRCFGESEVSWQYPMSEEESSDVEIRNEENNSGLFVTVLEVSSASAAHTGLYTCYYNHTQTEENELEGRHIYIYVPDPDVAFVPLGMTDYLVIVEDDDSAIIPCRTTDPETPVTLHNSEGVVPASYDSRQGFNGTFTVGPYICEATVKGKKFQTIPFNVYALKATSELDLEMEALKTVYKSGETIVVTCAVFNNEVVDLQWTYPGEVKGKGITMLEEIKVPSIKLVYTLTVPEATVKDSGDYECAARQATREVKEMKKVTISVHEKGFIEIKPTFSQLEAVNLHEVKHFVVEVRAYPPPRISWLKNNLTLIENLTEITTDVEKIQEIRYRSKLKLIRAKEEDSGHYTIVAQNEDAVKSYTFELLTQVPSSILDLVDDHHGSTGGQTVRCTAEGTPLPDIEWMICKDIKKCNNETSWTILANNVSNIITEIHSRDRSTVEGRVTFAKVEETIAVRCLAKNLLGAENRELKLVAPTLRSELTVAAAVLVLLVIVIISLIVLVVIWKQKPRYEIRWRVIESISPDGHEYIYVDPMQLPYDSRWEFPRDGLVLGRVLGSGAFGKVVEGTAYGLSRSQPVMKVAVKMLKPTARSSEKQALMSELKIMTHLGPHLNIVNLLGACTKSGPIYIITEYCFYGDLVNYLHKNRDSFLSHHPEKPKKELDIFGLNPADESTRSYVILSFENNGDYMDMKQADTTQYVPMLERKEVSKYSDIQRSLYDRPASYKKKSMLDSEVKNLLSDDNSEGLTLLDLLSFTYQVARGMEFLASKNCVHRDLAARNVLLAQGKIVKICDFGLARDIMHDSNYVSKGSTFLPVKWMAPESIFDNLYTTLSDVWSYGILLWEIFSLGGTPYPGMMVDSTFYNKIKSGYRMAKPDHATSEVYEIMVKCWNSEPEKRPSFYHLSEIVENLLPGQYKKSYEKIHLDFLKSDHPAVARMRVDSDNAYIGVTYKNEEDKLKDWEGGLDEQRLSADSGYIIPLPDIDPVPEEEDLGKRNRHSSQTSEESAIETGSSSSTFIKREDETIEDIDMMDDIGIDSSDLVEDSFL
Sequence of cKIT (P10721 26-976): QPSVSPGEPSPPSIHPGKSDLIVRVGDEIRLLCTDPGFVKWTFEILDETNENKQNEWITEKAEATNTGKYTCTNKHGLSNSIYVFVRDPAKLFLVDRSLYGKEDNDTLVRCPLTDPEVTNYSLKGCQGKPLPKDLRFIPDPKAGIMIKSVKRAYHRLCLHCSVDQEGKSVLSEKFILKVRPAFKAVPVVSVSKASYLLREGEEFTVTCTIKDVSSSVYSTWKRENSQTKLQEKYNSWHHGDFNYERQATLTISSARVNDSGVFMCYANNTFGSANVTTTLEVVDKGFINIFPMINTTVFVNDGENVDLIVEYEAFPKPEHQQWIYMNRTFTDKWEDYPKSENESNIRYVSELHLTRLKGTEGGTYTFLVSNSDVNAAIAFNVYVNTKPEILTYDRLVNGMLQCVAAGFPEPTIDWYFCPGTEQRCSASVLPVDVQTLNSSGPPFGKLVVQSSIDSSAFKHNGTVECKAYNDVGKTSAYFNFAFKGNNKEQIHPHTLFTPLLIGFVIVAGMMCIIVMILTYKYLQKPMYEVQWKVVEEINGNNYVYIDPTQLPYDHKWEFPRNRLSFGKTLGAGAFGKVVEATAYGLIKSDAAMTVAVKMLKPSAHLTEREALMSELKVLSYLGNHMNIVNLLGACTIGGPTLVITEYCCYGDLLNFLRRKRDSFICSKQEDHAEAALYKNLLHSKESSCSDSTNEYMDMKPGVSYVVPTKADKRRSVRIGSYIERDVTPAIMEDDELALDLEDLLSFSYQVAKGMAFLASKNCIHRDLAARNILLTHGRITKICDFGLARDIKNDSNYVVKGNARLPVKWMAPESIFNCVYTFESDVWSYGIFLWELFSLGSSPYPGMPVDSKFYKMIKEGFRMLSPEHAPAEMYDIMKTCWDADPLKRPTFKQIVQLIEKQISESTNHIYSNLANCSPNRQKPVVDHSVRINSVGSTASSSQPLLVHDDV
Sequence of HER4 (Q15303 26-1308): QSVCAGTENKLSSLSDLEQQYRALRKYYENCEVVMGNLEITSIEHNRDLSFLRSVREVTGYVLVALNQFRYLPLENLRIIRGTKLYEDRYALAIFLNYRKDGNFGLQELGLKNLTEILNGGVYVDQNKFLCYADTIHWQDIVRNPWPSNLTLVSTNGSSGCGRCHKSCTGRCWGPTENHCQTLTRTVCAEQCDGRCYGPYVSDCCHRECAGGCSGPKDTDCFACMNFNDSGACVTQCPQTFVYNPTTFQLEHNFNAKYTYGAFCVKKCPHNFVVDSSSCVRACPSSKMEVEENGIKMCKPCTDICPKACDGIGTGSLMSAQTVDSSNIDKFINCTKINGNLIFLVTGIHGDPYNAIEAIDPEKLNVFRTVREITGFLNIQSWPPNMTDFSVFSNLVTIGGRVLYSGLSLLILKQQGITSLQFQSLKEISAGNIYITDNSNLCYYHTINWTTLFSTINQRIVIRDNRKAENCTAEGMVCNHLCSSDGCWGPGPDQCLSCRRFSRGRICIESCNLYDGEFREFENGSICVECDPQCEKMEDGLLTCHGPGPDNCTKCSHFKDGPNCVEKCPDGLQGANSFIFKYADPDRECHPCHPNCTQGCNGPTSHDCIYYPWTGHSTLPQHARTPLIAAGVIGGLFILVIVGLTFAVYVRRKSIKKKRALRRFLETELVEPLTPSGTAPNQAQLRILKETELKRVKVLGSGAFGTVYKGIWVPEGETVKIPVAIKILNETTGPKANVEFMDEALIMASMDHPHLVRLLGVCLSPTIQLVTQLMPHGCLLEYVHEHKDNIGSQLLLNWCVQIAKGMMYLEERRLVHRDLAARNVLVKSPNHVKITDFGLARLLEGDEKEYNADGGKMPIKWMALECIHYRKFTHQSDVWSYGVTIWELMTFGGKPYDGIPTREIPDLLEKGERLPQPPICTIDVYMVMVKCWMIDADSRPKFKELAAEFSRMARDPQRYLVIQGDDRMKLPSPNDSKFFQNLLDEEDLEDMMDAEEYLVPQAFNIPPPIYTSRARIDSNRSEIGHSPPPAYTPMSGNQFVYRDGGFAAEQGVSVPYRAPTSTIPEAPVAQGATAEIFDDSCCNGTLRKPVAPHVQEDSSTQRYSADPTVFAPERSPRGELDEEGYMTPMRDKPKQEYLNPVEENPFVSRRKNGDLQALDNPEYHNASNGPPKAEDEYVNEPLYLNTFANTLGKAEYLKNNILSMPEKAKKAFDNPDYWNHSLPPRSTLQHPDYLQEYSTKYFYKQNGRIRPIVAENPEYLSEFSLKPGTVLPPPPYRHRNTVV
Sequence of CaMK2 (Q13555 whole entry): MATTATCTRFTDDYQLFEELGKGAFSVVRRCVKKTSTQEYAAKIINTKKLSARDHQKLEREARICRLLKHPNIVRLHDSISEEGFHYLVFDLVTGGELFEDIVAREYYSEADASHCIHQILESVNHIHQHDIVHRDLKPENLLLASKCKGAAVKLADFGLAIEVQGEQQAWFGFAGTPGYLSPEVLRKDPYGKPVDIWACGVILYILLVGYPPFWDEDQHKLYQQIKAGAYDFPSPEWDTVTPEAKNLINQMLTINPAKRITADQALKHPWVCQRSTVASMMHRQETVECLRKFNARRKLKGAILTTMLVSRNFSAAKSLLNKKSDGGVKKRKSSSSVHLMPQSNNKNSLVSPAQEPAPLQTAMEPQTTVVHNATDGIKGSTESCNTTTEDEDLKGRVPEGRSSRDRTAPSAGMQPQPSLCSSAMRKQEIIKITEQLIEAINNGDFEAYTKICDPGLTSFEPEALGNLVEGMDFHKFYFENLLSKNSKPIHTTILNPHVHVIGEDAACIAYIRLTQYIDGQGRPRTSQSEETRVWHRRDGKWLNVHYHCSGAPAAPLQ
Sequence of BTKv2 (Q06187 whole entry): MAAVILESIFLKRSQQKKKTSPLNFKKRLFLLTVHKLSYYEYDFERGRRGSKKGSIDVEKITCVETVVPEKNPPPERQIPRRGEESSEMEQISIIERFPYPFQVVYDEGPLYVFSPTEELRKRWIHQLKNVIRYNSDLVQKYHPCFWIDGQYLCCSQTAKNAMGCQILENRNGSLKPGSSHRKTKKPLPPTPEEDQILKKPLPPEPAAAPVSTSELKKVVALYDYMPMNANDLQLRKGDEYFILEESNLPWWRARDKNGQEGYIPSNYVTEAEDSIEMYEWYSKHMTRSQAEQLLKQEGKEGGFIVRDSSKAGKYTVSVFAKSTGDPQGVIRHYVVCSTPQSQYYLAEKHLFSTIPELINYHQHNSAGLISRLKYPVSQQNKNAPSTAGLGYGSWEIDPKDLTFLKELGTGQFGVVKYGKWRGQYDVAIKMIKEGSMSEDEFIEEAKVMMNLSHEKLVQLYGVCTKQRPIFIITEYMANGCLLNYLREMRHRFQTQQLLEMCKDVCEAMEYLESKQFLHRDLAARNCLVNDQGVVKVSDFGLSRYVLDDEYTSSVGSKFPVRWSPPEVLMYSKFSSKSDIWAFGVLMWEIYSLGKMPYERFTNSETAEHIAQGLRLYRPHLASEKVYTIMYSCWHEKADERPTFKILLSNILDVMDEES

activity against PIM1 (in words) [1]	activity against KIT (in words) [2]	activity against PDGFRα (in words) [3]	activity against FLT3 (in words) [4]	Molecule	other results
did not exhibit any inhibitory potency	–	–	–	Cn1c2c(c3ccc(Cl)c(Cl)c31)C(C#N)C1(CCN(C(=O)OC(C)(C)C)CC1)NC2=O (racemic) [Compound 19, (4′RS)-tert-Butyl 7′,8′-Dichloro-4′-cyano-9′-methyl-1′-oxo-1′,2′,4′,9′-tetrahydrospiro[piperidine-4,3′-pyrido[3,4-b]indole]-1-carboxylate]	–
highly potent inhibitors	did not exhibit any significant activity	did not exhibit any significant activity	did not exhibit any significant activity	CN1CCC2(CC1)NC(=O)c1c(c3ccc(Cl)c(Cl)c3n1C)C2C#N (racemic) [Compound 17, (4′RS)-7′,8′-Dichloro-1,9′-dimethyl-1′-oxo-1′,2′,4′,9′-tetrahydrospiro[piperidine-4,3′-pyrido[3,4-b]indole]-4′-carbonitrile]	–
complete loss of activity	–	–	–	(4RS)-N-[(7,8-Dichloro-3,3-dimethyl-1-oxo-2,3,4,9-tetrahydro-1H-pyrido[3,4-b]indol-4-yl)methyl]acetamide [Compound 24]	–
highly potent inhibitors	did not exhibit any significant activity	did not exhibit any significant activity	did not exhibit any significant activity	Cn1c2c(c3ccc(Cl)c(Cl)c31)C(C#N)C1(CCNCC1)NC2=O (racemic) [Compound 20, (4′RS)-7′,8′-Dichloro-9′-methyl-1′-oxo-1′,2′,4′,9′-tetrahydrospiro[piperidine-4,3′-pyrido[3,4-b]indole]-4′-carbonitrile]	IC50 [5]: > 10 µM; IC50 [6]: < 0.1 µM; IC50 [7]: > 10 µM; IC50 [8]: > 10 µM; IC50 [9]: < 0.1 µM; phosphorylation of 4E-BP1 [10]: dose-dependent decrease
highly potent inhibitors	–	–	–	CCN1CCC2(CC1)NC(=O)c1c(c3ccc(Cl)c(Cl)c3n1C)C2C#N (racemic) [Compound 18, (4′RS)-7′,8′-Dichloro-1-ethyl-9′-methyl-1′-oxo-1′,2′,4′,9′-tetrahydrospiro[piperidine-4,3′-pyrido[3,4-b]indole]-4′-carbonitrile]	–
